Results from patent US10544110B2, “Small molecule inhibitors of the nuclear translocation of androgen receptor for the treatment of castration-resistant prostate cancer” (University of Pittsburgh-Of the Commonwealth System of …, priority 2013, dated 2020).
Several values for one entry are separate records, joined by “and”; a condition that tells them apart may be missing. Identical values can stand only once.

Tested on: AR transcriptional activity (PSA promoter activity)
Assay: PSA luciferase assay in C4-2-PSA-rl cells (Dual-Glo luciferase system)
Settings: for IC50 / activity in PSA luciferase assay (in words): C4-2-PSA-rl cells; for IC50: 24 h treatment, 1 nM R1881, mean and SD of 2-6 independent experiments; for activity in PSA luciferase assay (in words): up to 25 μM
Method: C4-2-PSA-rl cells were seeded in 24-well plates such that they reached 75-80% cell monolayer density after 24 h. […] Each compound was tested in at least two independent experiments. Luciferase activity was assayed using the Dual-Luciferase® Reporter Assay System (Promega) using LMax II Microplate Reader (Molecular Devices). The luciferase assay results were acquired using SoftMax Pro5.45 software (Molecular Devices) and analyzed using GraphPad Prism. PSA6.1-luc activity was normalized to the Renilla luciferase activity. Relative luciferase activity was calculated as the quotient of androgen-induced PSA-firefly/Renilla luciferase activity. Since PSA promoter activity correlates to AR transcriptional activity, inhibition of AR will result in decreased PSA-luciferase activity.

**Q.** `Cc1ccccc1N1CCN(C(=O)[C@H]2C[C@@H]2c2ccccc2)CC1` (racemic) [Compound 16, ((1SR,2SR)-2-Phenylcyclopropyl)(4-(o-tolyl)piperazin-1-yl)methanone] was tested. Which IC50 (24 h) did it give?
**A.** > 25 µM

**Q.** And the “activity in PSA luciferase assay (in words)” value (“activity … (in words)” below)?
**A.** essentially inactive

**Q.** With `Cc1noc(C)c1CSCC(=O)N1CCN(c2ccccc2)CC1` [Compound 5a, 2-(((3,5-Dimethylisoxazol-4-yl)methyl)thio)-1-(4-phenylpiperazin-1-yl)ethanone] as the molecule, how does the IC50 (24 h) read?
**A.** > 25 µM

**Q.** And the “activity … (in words)” value?
**A.** deleted activity

**Q.** How did the IC50 (24 h) turn out when `Cc1ccccc1N1CCN(C(=O)CSCc2c(C)noc2C)CC1` [Compound 5b, 2-(((3,5-Dimethylisoxazol-4-yl)methyl)thio)-1-(4-(o-tolyl)piperazin-1-yl)ethanone] was run?
**A.** 14.5 µM

**Q.** For `Cc1cccc(N2CCN(C(=O)CSCc3c(C)noc3C)CC2)c1` [Compound 5c, 2-(((3,5-Dimethylisoxazol-4-yl)methyl)thio)-1-(4-(m-tolyl)piperazin-1-yl)ethanone], which IC50 (24 h) is on record?
**A.** > 25 µM

**Q.** And the “activity … (in words)” value?
**A.** loss of activity

**Q.** For `Cc1ccc(N2CCN(C(=O)CSCc3c(C)noc3C)CC2)cc1` [Compound 5d, 2-(((3,5-Dimethylisoxazol-4-yl)methyl)thio)-1-(4-(p-tolyl)piperazin-1-yl)ethanone], which IC50 (24 h) is on record?
**A.** > 25 µM

**Q.** And the “activity … (in words)” value?
**A.** loss of activity

**Q.** `Cc1noc(C)c1CSCC(=O)N1CCN(c2ccccc2C#N)CC1` [Compound 5e, 2-(4-(2-(((3,5-Dimethylisoxazol-4-yl)methyl)thio)acetyl)piperazin-1-yl)benzonitrile] was tested. Which IC50 (24 h) did it give?
**A.** 12 to 13 µM

**Q.** What about the IC50 of the same molecule?
**A.** 12 ± 1.6 µM

**Q.** Which results are given for `Cc1noc(C)c1CSCC(=O)N1CCN(c2ccccc2F)CC1` [Compound 5f, 2-(((3,5-Dimethylisoxazol-4-yl)methyl)thio)-1-(4-(2-fluorophenyl)piperazin-1-yl)ethan-1-one]?
**A.** IC50 (24 h): 12 to 13 µM; IC50: 12.6 ± 7.7 µM

**Q.** Which IC50 (24 h) does the source give for `Cc1noc(C)c1CSCC(=O)N1CCN(c2cccc3ccccc23)CC1` [Compound 5g, 2-(((3,5-Dimethylisoxazol-4-yl)methyl)thio)-1-(4-(naphthalen-1-yl)piperazin-1-yl)ethanone] here?
**A.** 11.1 µM

**Q.** For `COc1ccccc1N1CCN(C(=O)CSCc2c(C)noc2C)CC1` [Compound 5h, 2-(((3,5-Dimethylisoxazol-4-yl)methyl)thio)-1-(4-(2-methoxyphenyl)piperazin-1-yl)ethanone], which IC50 (24 h) is on record?
**A.** > 25 µM

**Q.** And the “activity … (in words)” value?
**A.** complete loss of activity

**Q.** `Cc1ccccc1N(C)CCN(C)C(=O)CSCc1c(C)noc1C` [Compound 5i, 2-(((3,5-Dimethylisoxazol-4-yl)methyl)thio)-N-methyl-N-(2-(methyl(o-tolyl)amino)ethyl) acetamide] was tested. Which IC50 (24 h) did it give?
**A.** 18.4 µM

**Q.** `Cc1ccccc1N1CCCN(C(=O)CSCc2c(C)noc2C)CC1` [Compound 5j, 2-(((3,5-Dimethylisoxazol-4-yl)methyl)thio)-1-(4-(o-tolyl)-1,4-diazepan-1-yl)ethan-1-one] was tested. Which IC50 (24 h) did it give?
**A.** 11.1 µM

**Q.** Which results are given for `Cc1ccccc1N1C[C@@H](C)N(C(=O)CSCc2c(C)noc2C)[C@@H](C)C1` [Compound 5k, 1-(2,6-Dimethyl-4-(o-tolyl)piperazin-1-yl)-2-(((3,5-dimethylisoxazol-4-yl)methyl)thio)ethanone]?
**A.** IC50 (24 h): 3.1 µM; activity in PSA luciferase assay (in words): significantly more potent than 1

**Q.** Which results are given for `Cc1noc(C)c1CSCC(=O)N1C[C@@H](C)N(c2ccccc2)[C@@H](C)C1` [Compound 5l, 1-(3,5-Dimethyl-4-phenylpiperazin-1-yl)-2-(((3,5-dimethylisoxazol-4-yl)methyl)thio)ethan-1-one]?
**A.** IC50 (24 h): 15 to 17 µM; IC50: 14.7 ± 4.4 µM

**Q.** Which results are given for `Cc1cccc(N2[C@H](C)CN(C(=O)CSCc3c(C)noc3C)C[C@@H]2C)c1` [Compound 5m, 1-(3,5-Dimethyl-4-(m-tolyl)piperazin-1-yl)-2-(((3,5-dimethylisoxazol-4-yl)methyl)thio)ethan-1-one]?
**A.** IC50 (24 h): 15 to 17 µM; IC50: 16.6 ± 4.8 µM

**Q.** Which results are given for `Cc1ccccc1N1CCN(CCSCc2c(C)noc2C)CC1` [Compound 6, 3,5-Dimethyl-4-(((2-(4-(o-tolyl)piperazin-1-yl)ethyl)thio)methyl)isoxazole]?
**A.** IC50 (24 h): 10.8 µM; increase in activity relative to amide 5b (amine 6 vs amide 5b): 1.3 fold

**Q.** What does the source list for `Cc1ccccc1N1CCN(C(=O)CSCc2ccccc2)CC1` [Compound 7, 2-(Benzylthio)-1-(4-(o-tolyl)piperazin-1-yl)ethanone]?
**A.** IC50 (24 h): 14 µM; IC50: 13.7 ± 0.8 µM

**Q.** With `Cc1ccccc1N1CCN(C(=O)CCCc2ccccc2)CC1` [Compound 8, 4-Phenyl-1-(4-(o-tolyl)piperazin-1-yl)butan-1-one] as the molecule, how does the IC50 (24 h) read?
**A.** 14 µM

**Q.** And the IC50?
**A.** 14.4 ± 3.7 µM

**Q.** What does the source list for `Cc1ccccc1N1CCN(C(=O)CSc2ccccc2)CC1` [Compound 9, 2-(Phenylthio)-1-(4-(o-tolyl)piperazin-1-yl)ethan-1-one]?
**A.** IC50 (24 h): > 25 µM; activity in PSA luciferase assay (in words): abolished activity

**Q.** For `Cc1ccccc1N1CCN(C(=O)C#Cc2ccccc2)CC1` [Compound 10, 3-Phenyl-1-(4-(o-tolyl)piperazin-1-yl)prop-2-yn-1-one], which IC50 (24 h) is on record?
**A.** 20.3 ± 11.6 µM

**Q.** And the “activity … (in words)” value?
**A.** essentially inactive

**Q.** With `Cc1ccccc1N1CCN(C(=O)/C=C/c2ccccc2)CC1` [Compound 11, (E)-3-Phenyl-1-(4-(o-tolyl)piperazin-1-yl)prop-2-en-1-one] as the molecule, how does the IC50 (24 h) read?
**A.** > 25 µM

**Q.** What about the “activity … (in words)” value of the same molecule?
**A.** essentially inactive

**Q.** What does the source list for `Cc1ccccc1N1CCN(C(=O)C[S+]([O-])Cc2c(C)noc2C)CC1` (centres unmarked) [Compound 12, 2-(((3,5-Dimethylisoxazol-4-yl)methyl)sulfinyl)-1-(4-(o-tolyl)piperazin-1-yl)ethan-1-one]?
**A.** IC50 (24 h): > 25 µM; activity in PSA luciferase assay (in words): inactive

**Q.** `Cc1ccccc1N1CCN(C(=O)CS(=O)(=O)Cc2c(C)noc2C)CC1` [Compound 13, 2-(((3,5-Dimethylisoxazol-4-yl)methyl)sulfonyl)-1-(4-(o-tolyl)piperazin-1-yl)ethan-1-one] was tested. Which IC50 (24 h) did it give?
**A.** 16.1 µM

**Q.** How did the IC50 (24 h) turn out when `Cc1ccccc1N1CCN(C(=O)/C=C\c2ccccc2)CC1` [Compound 14, (Z)-3-Phenyl-1-(4-(o-tolyl)piperazin-1-yl)prop-2-en-1-one] was run?
**A.** 12.7 µM

**Q.** With `Cc1ccccc1N1CCN(C(=O)C2CC2c2ccccc2)CC1` (centres unmarked) [Compound 15, (2-Phenylcyclopropyl)(4-(o-tolyl)piperazin-1-yl)methanone] as the molecule, how does the IC50 (24 h) read?
**A.** 2.9 µM

**Q.** And the “activity … (in words)” value?
**A.** significantly more potent than 1

**Q.** Which results are given for `Cc1ccccc1N1CCN(C(=O)COCc2c(C)noc2C)CC1` [Compound 18a, 2-((3,5-Dimethylisoxazol-4-yl)methoxy)-1-(4-(o-tolyl)piperazin-1-yl)ethan-1-one]?
**A.** IC50 (24 h): > 25 µM; activity in PSA luciferase assay (in words): abolished activity

**Q.** Which results are given for `Cc1ccccc1N1CCN(C(=O)CN(C)Cc2ccccc2)CC1` [Compound 18b, 2-(Benzyl(methyl)amino)-1-(4-(o-tolyl)piperazin-1-yl)ethanone]?
**A.** IC50 (24 h): > 25 µM; activity in PSA luciferase assay (in words): abolished activity

**Q.** Which IC50 (24 h) does the source give for `Cc1ccccc1N1CCN(S(=O)(=O)CSCc2c(C)noc2C)CC1` [Compound 18c, 3,5-Dimethyl-4-(((((4-(o-tolyl)piperazin-1-yl)sulfonyl)methyl)thio)methyl)isoxazole] here?
**A.** 7.2 µM

**Q.** What does the source list for `Cc1ccccc1N1CCN(C(=O)NCSCc2c(C)noc2C)CC1` [Compound 20a, N-((((3,5-Dimethylisoxazol-4-yl)methyl)thio)methyl)-4-(o-tolyl)piperazine-1-carboxamide]?
**A.** IC50 (24 h): > 25 µM; activity in PSA luciferase assay (in words): inactive

**Q.** For `Cc1ccccc1N1CCC(OC(=O)NCSCc2c(C)noc2C)CC1` [Compound 20b], which IC50 (24 h) is on record?
**A.** > 25 µM

**Q.** And the “activity … (in words)” value?
**A.** inactive

**Q.** For `Cc1ccccc1C1CC2CCC(C1)N2C(=O)CSCc1c(C)noc1C` (stereo not drawn) [Compound 26a, 2-(((3,5-Dimethylisoxazol-4-yl)methyl)thio)-1-(3-endo-(o-tolyl)-8-azabicyclo[3.2.1]octan-8-yl)ethanone], which IC50 is on record?
**A.** 8 µM and 7.7 µM

**Q.** For `Cc1ccccc1[C@@H]1C[C@H]2CC[C@@H](C1)N2C(=O)CSCc1c(C)noc1C` [Compound 26b], which IC50 is on record?
**A.** 8 µM and 7.9 µM

**Q.** What does the source list for `Cc1ccc(Cl)cc1N1CCN(C(=O)[C@H]2C[C@H]2c2ccc(F)cc2)CC1` [JJ-450A, (4-(5-chloro-2-methylphenyl)piperazin-1-yl)((1S,2R)-2-(4-fluorophenyl)cyclopropyl)methanone]?
**A.** IC50 (24 h): 1.6 ± 0.1 µM; activity in PSA luciferase assay (in words): significantly more potent than 1

**Q.** For `Cc1ccc(Cl)cc1N1CCN(C(=O)[C@@H]2C[C@@H]2c2ccc(F)cc2)CC1` [JJ-450B, (4-(5-Chloro-2-methylphenyl)piperazin-1-yl)((1R,2S)-2-(4-fluorophenyl)cyclopropyl)-methanone], which IC50 (24 h) is on record?
**A.** 13.1 ± 1.8 µM
